Series [1] concerns the target T1, human P450 11A1 (Homo sapiens, UniProt P05108).
T1 construct: M A S T R S P R P F N E I P S P G D N; Met-Ala (N-terminal start residues in place of the transit peptide and Ile40) (N); made in house; host or cells: E. coli C41(DE3) with GroES/GroEL, vector pET23C(+)
T1 sequence (P05108 41-521 limits assumed): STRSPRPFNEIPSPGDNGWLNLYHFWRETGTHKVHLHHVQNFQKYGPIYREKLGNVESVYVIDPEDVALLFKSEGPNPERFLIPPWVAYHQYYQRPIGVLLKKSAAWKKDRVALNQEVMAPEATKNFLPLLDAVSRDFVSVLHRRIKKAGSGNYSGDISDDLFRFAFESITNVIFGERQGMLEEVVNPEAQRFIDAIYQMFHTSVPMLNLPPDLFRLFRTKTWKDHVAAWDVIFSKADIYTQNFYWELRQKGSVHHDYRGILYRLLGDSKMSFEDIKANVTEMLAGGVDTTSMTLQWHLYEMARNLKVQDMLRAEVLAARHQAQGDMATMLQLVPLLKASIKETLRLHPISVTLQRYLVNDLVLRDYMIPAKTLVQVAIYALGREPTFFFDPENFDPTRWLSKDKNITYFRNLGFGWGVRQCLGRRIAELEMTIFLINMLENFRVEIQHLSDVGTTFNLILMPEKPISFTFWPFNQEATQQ
The series can be described thus: Steady-state spectral (type I) binding titration, Kd determination. As to conditions: up to 1 mM. The protocol:
Ligand binding constants were determined from the low-to high-spin (hypsochromic) spectral transition that occurs at the P450 heme as substrate entering the active site replaces water as the sixth axial heme ligand. […] As a result, we subsequently measured koff values of the P450-sterol complexes, which were consistent with the low Kd values observed (see below). Binding titrations were repeated in the presence of Adx (1 M equivalent, Fig. 6), although no significant effect was observed, even when Adx was added in excess (10-fold with cholesterol as the substrate, data not shown).
Spectra were recorded using either an OLIS-Cary 14 or OLIS-Aminco DW2a instrument (On-Line Instrument Systems) in the split-beam mode. The OLIS-Cary 14 instrument was used in the P450 11A1 titrations with a 10-cm cell (Starna Cells, catalog no. 34-Q-100, volume 25 ml).
Kd values were determined by difference spectroscopy as previously reported ([33], [43]) but with some modifications. Briefly, a long-path quartz cuvette (10 cm, 25 ml) containing P450 11A1 (0.1 μM, in 100 mM potassium phosphate buffer (pH 7.4)) was prepared and a baseline was recorded in an OLIS-Cary 14 spectrophotometer. Where indicated, the redox partner Adx was added in equimolar concentration (0.1 μM) to P450. Sterol solutions (in 45% HPCD, w/v) were added to the cuvette, the contents of the cuvette were inverted to mix, and a spectrum was recorded (350–500 nm) after each addition. The total volume added to each cuvette was kept ≤2% (v/v, 0.25 ml) in the assay. The maximum absorbance difference (usually ΔA390−A418) was plotted against the total sterol concentration, and the data were fit to a quadratic equation in GraphPad Prism software (GraphPad, https://www.graphpad.com) to estimate the dissociation constant (Kd). A quadratic equation was used to correct the ligand concentration for the enzyme-bound concentration (used as Y=B+A/2∗1/E∗((Kd+E+X)−(Kd+E+X)^2−(4∗E∗X)) (or Y = B + (A/2)∗(1/E)∗((Kd + E + X)-sqrt((Kd + E + X)∧2 -(4∗E∗X)) in Prism software), where E = enzyme concentration, Kd = dissociation constant, and X = […]).

The target of series [2] is T2, human P450 11A1 (Homo sapiens, UniProt P05108).
T2 sequence (P05108 41-521 limits assumed): T1 sequence (P05108 41-521 limits assumed)
T2 sequence (P00257 59-186 partner): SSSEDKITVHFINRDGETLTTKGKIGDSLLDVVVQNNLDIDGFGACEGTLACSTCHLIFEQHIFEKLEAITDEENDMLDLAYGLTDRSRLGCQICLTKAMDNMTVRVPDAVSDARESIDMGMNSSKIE
The series can be described thus: Effect of Tween 20 and lipids on P450 11A1 catalytic activity (cholesterol to pregnenolone). The settings on record: for effect on P450 11A1 catalytic activity: 50 μM cholesterol, 0.25 μM P450 11A1, lipids 30 μM phospholipid. The protocol: The substrate cholesterol and its 22R-OH and 20R,22R-(OH)2 products were delivered in 2-hydroxypropyl-β-cyclodextrin (HPCD) ([36]) in assays, circumventing the need to use any detergents or organic solvents.
Reactions were run in triplicate and the conversion of cholesterol to pregnenolone was calculated and plotted (nmol pregnenolone formed min^−1 (nmol P450)^−1). (Note: These assays were done with P450 11A1 purified in the absence of Tween 20.). AdR, adrenodoxin reductase; Adx, adrenodoxin; P450, cytochrome P450.
Reactions were run in triplicate and the conversion of cholesterol to pregnenolone was calculated and plotted (nmol pregnenolone formed min^−1 (nmol P450)^−1). AdR, adrenodoxin reductase; Adx, adrenodoxin; P450, cytochrome P450.
Sterol dilutions were performed in HPCD to ensure that the HPCD composition was equal throughout all incubations (final 4.5% w/v). The reaction mixture was split between vials (425 μl in each), and reactions were preincubated (37 °C, 5 min) prior to initiation (75 μl) with an NADPH-generating system (0.5 mM NADP^+, 10 mM glucose 6-phosphate, and 2 μg ml^−1 glucose 6-phosphate dehydrogenase) ([61]). Reactions (5 min) were terminated by extraction into CH2Cl2 (2 ml) and transferred to an ice bath. After the experiment was complete, the quenched reactions were subjected to centrifugation (10^3g, 5 min, 23 °C) to separate layers, the organic (bottom) layer of each sample was removed (1.6 ml) to fresh glass vials, and the samples were brought to dryness under a stream of nitrogen.

The target of series [3] is T3, P450 11A1 (CYP11A1) (Homo sapiens, UniProt P05108).
T3 construct: M A S T R S P R P F N E I P S P G D N; Met-Ala (N-terminal start residues in place of the transit peptide and Ile40) (N); made in house; host or cells: E. coli (P450 11A1 in C41(DE3); Adx and AdR in E. coli)
T3 sequence (P05108 41-521 limits assumed): T1 sequence (P05108 41-521 limits assumed)
T3 sequence (P00257 59-186 partner): T2 sequence (P00257 59-186 partner)
The series can be described thus: Kinetic isotope effect assay, disappearance of d0- and d3-cholesterol under single-turnover conditions. The settings on record: human, pH 7.4; 5 μM P450, 5 μM sterol, low Adx single-turnover; read-out: sterol half-life (t1/2) (converted). The series is classed as biochemical. As to the method:
(§1) P450 11A1 incubations were performed under (low Adx) single-turnover conditions (5 μM P450, 5 μM cholesterol; see Experimental procedures) with d0- (authentic, unlabeled) and d3-cholesterol, and the disappearance of each was monitored by LC-atmospheric pressure chemical ionization-MS (m/z 369.3516 and 372.3705, respectively). In theory, if C-H bond breaking were rate-limiting in the initial hydroxylation then the rate of d3-cholesterol consumption would be slower relative to the d0 compound due to the increased strength of a C-D bond.
The kinetic isotope experiment was designed similarly to the benchtop experiment described above, but with some modifications. P450 11A1 (5 μM) was reconstituted with the redox partners AdR (10 μM) and Adx (5 μM) on ice (10 min) prior to dilution in potassium Hepes (50 mM, pH 7.4) and H2O and addition of d3-cholesterol substrate (5 μM). […]
Samples (held at 4 °C) were injected (10 μl) using a Waters Acquity UPLC system on a Acquity BEH octadecylsilane (C18) 2.1 mm × 50 mm (1.7 μm) UPLC column (held at 25 °C) with a flow rate of 0.5 ml min^−1 using an isocratic mobile phase of CH3CN (only). The column eluate was subjected to atmospheric pressure chemical ionization and analyzed using a Thermo Fisher Scientific LTQ XL Orbitrap mass spectrometer instrument operating in positive mode, scanning from m/z 100 to 500, with a resolution setting of 120,000. […]

The target of series [4] is T2, human P450 11A1. Described as above. It is filed as biochemical. Also on record: M A S T R S P R P F N E I P S P G D N; Met-Ala (N-terminal start residues in place of the transit peptide and Ile40) (N); made in house; host or cells: E. coli (P450 11A1 in C41(DE3); Adx and AdR in E. coli). As to conditions: for kinetic isotope effect: C-22 hydroxylation, single-turnover. The protocol: as §1
The kinetic isotope experiment was designed similarly to the benchtop experiment described above, but with some modifications. P450 11A1 (5 μM) was reconstituted with the redox partners AdR (10 μM) and Adx (5 μM) on ice (10 min) prior to dilution in potassium Hepes (50 mM, pH 7.4) and H2O and addition of d3-cholesterol substrate (5 μM). The mixture was preincubated (5 min) prior to initiation with NADPH (2.5 mM, from 25 mM in potassium Hepes (50 mM, pH 7.4)) thus bringing all components to their desired final concentrations. After completing the desired incubation time, an aliquot (500 μl) was removed from the incubation and added to vials containing CH2Cl2 (5 ml) and the vials were mixed with a vortex device and placed on ice. The quenched reactions were centrifuged (10^3g, 5 min, 23 °C) to separate layers, and the organic (bottom) layers were removed (4 ml) and transferred to fresh glass vials. The extraction process was repeated and the two extracts (2 × 4 ml) from each sample were combined to maximize product recovery. Samples (8 ml) were brought to dryness under a stream of nitrogen, and the dried residues were dissolved in CH3OH (25 μl) and transferred to autosampler vials for analysis.
Samples (held at 4 °C) were injected (10 μl) using a Waters Acquity UPLC system on a Acquity BEH octadecylsilane (C18) 2.1 mm × 50 mm (1.7 μm) UPLC column (held at 25 °C) with a flow rate of 0.5 ml min^−1 using an isocratic mobile phase of CH3CN (only). The column eluate was subjected to atmospheric pressure chemical ionization and analyzed using a Thermo Fisher Scientific LTQ XL Orbitrap mass spectrometer instrument operating in positive mode, scanning from m/z 100 to 500, with a resolution setting of 120,000. Data were processed using Xcalibur QualBrowser (Thermo Fisher Scientific) software (version 2.0.7; https://www.thermofishcer.com/order/catalog/product/OPTON).

Series [5] addresses T1, human P450 11A1. The series can be described thus: Stopped-flow ketoconazole trap, koff and binding rate measurements. As to the method:
Interaction of the azole nitrogen atom with the P450 heme produces a bathochromic (“type II”) spectral shift (to ∼430 nm)—an inverse effect of the binding of substrate.
Measurement of kon rate(s) was not performed because the sterols are delivered in a solution of HPCD, from which the dissociation rate is not known.
Determinations of koff rates were performed as previously described ([33]).

“Also recorded” adds a separate entry of the source. Like-named read-outs stand apart in the source and are kept apart here.

On to `CC(C)CCC=O` [4-methylpentanal], for which the “spectral shift with P450 11A1” value in series [1] is listed as “did not induce a spectral shift”.
For `CCCCCCCCCCCC(=O)OC[C@H](COP(=O)([O-])OCC[N+](C)(C)C)OC(=O)CCCCCCCCCCC` [L-α-dilauroyl-sn-glycero-3-phosphocholine], the “effect on P450 11A1 catalytic activity” value in series [2] is reported as “not enhanced”.
With `CCCCCCCC/C=C\CCCCCCCC(=O)OC[C@H](COP(=O)([O-])OCC[N+](C)(C)C)OC(=O)CCCCCCC/C=C\CCCCCCCC` [L-α-dioleyl-sn-glycero-3-phosphocholine], the “effect on P450 11A1 catalytic activity” value in series [2] was “not enhanced”.
Regarding `[2H]C([2H])(CCC(C)C)[C@@]([2H])(C)[C@H]1CC[C@H]2[C@@H]3CC=C4C[C@@H](O)CC[C@]4(C)[C@H]3CC[C@@]21C` [d3-cholesterol, (20R)-Cholest-5-ene-20,22,22-d3-3β-ol], in series [3], the half-life at 5 μM was 22 s. The same compound showed a rate of disappearance in series [4] (5 μM P450, 5 μM sterol, exponential decay fit) of 0.032 s⁻¹. In addition, the values for the kinetic isotope effect entry in series [4] and in series [4] (listed as d3-Cholesterol) were “did not observe a kinetic isotope effect” and “no kinetic deuterium isotope effect”, respectively.
With `CC(=O)N1CCN(c2ccc(OCC3COC(Cn4ccnc4)(c4ccc(Cl)cc4Cl)O3)cc2)CC1` (centres unmarked) [ketoconazole, reference compound], the “observed rate of ketoconazole binding (ΔA430)” value in series [5] (20 μM ketoconazole mixed with 2 μM P450 11A1, equal volumes, 23 °C) came to 5.3 s⁻¹. In addition, the association rate constant (kon) is 710000 M⁻¹ s⁻¹ in series [5] (read-out: fast phase of biexponential fit (ketoconazole kon), cholesterol data, trap experiment with P450-cholesterol complex); 790000 M⁻¹ s⁻¹ in series [5] (read-out: fast phase of biexponential fit (ketoconazole kon), pregnenolone data, trap experiment with P450-pregnenolone complex); no less than 500000 M⁻¹ s⁻¹ in series [5] (read-out: rate of ketoconazole binding to unliganded P450 11A1 (kon), stopped-flow, unliganded enzyme).
In the case of Tween 20, the concentrations found inhibitory in series [2] (0.25 μM P450 11A1, 50 μM cholesterol, 40-fold Adx) is > 0.008 % (w/v). Also, in series [2], the “effect on P450 11A1 catalytic activity” value is listed as “inhibitory; also recorded: inhibited; also recorded: strongly inhibitory; also recorded: inhibits the enzyme”.
Regarding cardiolipin, the “effect on P450 11A1 catalytic activity” value in series [2] is on record as “inhibit”.

Source of the values: publication PMC10716780, “The multistep oxidation of cholesterol to pregnenolone by human cytochrome P450 11A1 is highly processive” (The Journal of Biological Chemistry, 2023).
